Experiments:
[1] = system: mice with ulcerative colitis; test: DSS-induced ulcerative colitis mice: ^99mTc-EC20 radioimaging of colon, clinical score and colon length under therapy; assay type: in vivo; conditions: for clinical scores compared to disease control mice / colon shortening compared to disease control mice: after 8 days of continuous therapy; for clinical scores or colon lengths relative to saline-treated mice / ^99mTc-EC20 uptake in colon relative to saline-treated mice: day 4 of therapy; for ^99mTc-EC20 uptake in colon relative to saline-treated mice: 150 μCi ^99mTc-EC20; for ^99mTc-EC20 radioimages compared with the earlier time point (day 4): day 8 of therapy
Method: Ulcerative colitis was induced as previously described in S. Wirtz, C. […] Nat Protoc. 2, 541-546 (2007), incorporated herein by reference. Seven week old Balb/c mice (Harlan Laboratories) maintained on a folate-deficient diet were administered 5% dextran sodium sulfate (DSS) in their drinking water. Mice were divided into treatment groups (n=10 per group). Healthy mice and disease control mice received 100 μL saline daily by oral gavage. Diseased mice were treated daily with cimetidine (100 mg/kg) or sulphasalazine (150 mg/kg) by oral gavage. Healthy mice were maintained on normal water and similarly treated with saline. Disease symptoms were assessed daily and quantitated by adding the scores from each of the following tests: Weight loss: 0=no weight loss, 1=1-5% weight loss, 2=6-10% weight loss, 3=11-15% weight loss, 4=>15% weight loss; Stool appearance: 0=normal, 1=loose feces, 2=diarrhea; Hematochezia (blood in stool): 0=no blood, 1=positive via guaiac paper, 2=visually bloody; Overall appearance: 0=normal, 1=ruffled fur/altered gait, 2=lethargic, moribund. On day 4 of therapy, half of each treatment group (n=5) received an intraperitoneal injection of ^99mTc-EC20. After 4 hours, the injected mice were euthanized and the bladder and kidneys were removed to reduce background radiation associated with ^99mTc-EC20 undergoing excretion. Mice were then imaged to assess uptake of ^99mTc-EC20 in the colon, and the colons were removed and measured with calipers to evaluate colon shortening as a measure of disease severity. On day 8, the remaining mice were injected with ^99mTc-EC20 and analyzed similarly.
(§1) ^99mTc-EC20 was prepared as previously described in C. P. Leamon, M. A. Parker, I. R. Vlahov, L. Xu, J. A. Reddy, M. Vetzel, N. Douglas, Synthesis and Biological Evaluation of EC20: A New Folate-Derived, ^99mTc-Based Radiopharmaceutical. Bioconjugate Chem. 13, 1200-1210 (2002), incorporated herein by reference. A preparation method for ^99mTc-EC20 is also described in U.S. Pat. No. 7,128,893, incorporated herein by reference. Briefly, 1 mL of 15 mCi/mL sodium pertechnetate (Cardinal Health) was added to 0.1 mg of EC20 (a gift from Endocyte, Inc.) and heated at 100° C. for 18 min. After diluting with saline, 100 μL ^99mTc-EC20 (150 μCi (˜75 nmol of EC20 per kilogram for CIA, ulcerative colitis and pulmonary fibrosis mice) or 300 μCi (˜150 nmol of EC20 per kilogram for atherosclerosis)) was injected intraperitoneally into the desired mice, and unbound ^99mTc-EC20 was allowed to clear from tissues for 4 h. Mice were then either anesthetized with 3% isoflurane (CIA, atherosclerosis, and pulmonary fibrosis mice) or euthanized (ulcerative colitis mice) prior to image acquisition using a Kodak Image Station operated with Kodak molecular imaging software (version 4.5; Carestream Molecular Imaging). Radioimages were acquired for 2 minutes using a radioisotopic phosphor screen, no illumination source, 4×4 binning, focal plane=5, FOV=160, and f-stop=0. White light images were acquired for 0.175 seconds with white light transillumination source, no binning, focal plane=5, FOV=160, and f-stop=11.
Mice (n=10/group) were administered 5% dextran sulfate sodium (DSS) in water to induce ulcerative colitis and then treated daily with cimetidine, sulphasalazine or saline (disease control). Then on day 4, half of the mice (n=5/group) were injected with 150 μCi ^99mTc-EC20 and euthanized in preparation for subsequent imaging of their colons.

macrophage accumulation = test: Flow cytometric analysis (F480-PE) of macrophage accumulation in large intestine of ulcerative colitis mice; assay type: in vivo; conditions: after 4 days of treatment, F480-PE flow cytometry
Method: Ulcerative colitis was induced as described. Seven week old Balb/c mice (Harlan Laboratories) maintained on a folate-deficient diet were administered 5% dextran sodium sulfate (DSS) in their drinking water. Healthy control mice were maintained on normal water. Mice were divided into treatment groups (n=3 per group). Healthy mice and disease control mice received 100 μL saline daily by oral gavage. Diseased mice were treated daily with cimetidine (100 mg/kg) or sulphasalazine (150 mg/kg) by oral gavage. After 4 days of treatment, mice were euthanized and large intestines were removed. Equal weights of the large intestines were digested and made into single cell suspensions. Cells were included with mouse macrophage marker F480-PE and analyzed by flow cytometry.

[2] = system: mice with pulmonary fibrosis; test: Bleomycin-induced pulmonary fibrosis mice: ^99mTc-EC20 radioimaging, BAL cell count, lung hydroxyproline, H&E; assay type: in vivo
Method: Pulmonary fibrosis was induced in mice as previously described in B. B. Moore, C. M. Hogaboam, Murine models of pulmonary fibrosis. Am J Physiol Lung Cell Mol Physiol. 294, L152-160 (2008), incorporated herein by reference. Briefly, 6 week old female C57BL/6 mice (Harlan Laboratories) maintained on a folate-deficient diet were anaesthetized with isoflurane, and 50 μL of bleomycin (2 U/kg body weight) dissolved in saline was intratracheally instilled into each mouse. Healthy control mice were similarly intratracheally instilled with 50 μL saline. Mice were then separated into treatment groups (n=5). […] Diseased mice were injected every day intraperitoneally with dexamethasone (0.5 mg/kg) or etanercept (300 μg). Mice were imaged with ^99mTc-EC20 after 6 days of treatment and again after 15 days of treatment. Mice were then euthanized by CO2 asphyxiation and bronchoalveolar lavage fluid was collected and cells were counted using a Beckman Coulter Z™ Series COULTER COUNTER® Cell and Particle Counter. The left lung was fixed in formalin and submitted to the Purdue Histology & Phenotyping Laboratory for H&E staining and the right lung was used for analysis of hydroxyproline content using a hydroxyproline assay kit from Sigma-Aldrich (St. Louis, Mo.).
(§2) ^99mTc-EC20 was prepared as previously described in C.
Since pulmonary fibrosis is thought to be primarily driven by M2 macrophages, C57BL/6 mice were induced to develop an acute form of lung fibrosis by intratracheal instillation of bleomycin. Immediately following disease induction, mice were treated daily with intraperitoneal injections of dexamethasone, etanercept, or saline, and then imaged with ^99mTc-EC20 six days later.

CIA mice [3] = test: Collagen-induced arthritis (CIA) mice: ^99mTc-EC20 radioimaging, arthritis score and paw thickness under anti-inflammatory therapy; conditions: for disease symptoms (arthritis score, paw swelling) relative to disease control / uptake of ^99mTc-EC20 in the affected appendages relative to disease control: day 3 of therapy; for uptake of ^99mTc-EC20 in the affected appendages relative to disease control: 150 μCi ^99mTc-EC20 i.p., imaged after 4 h
Method: Collagen-induced arthritis (CIA) was initiated using established methods on 6-7 week old female DBA/1 mice (Jackson Laboratories) maintained on folate-deficient diet (Harlan-Teklad). Briefly, mice were immunized at the base of the tail with 100 μg bovine type II collagen emulsified in complete Freund's adjuvant (Chondrex, Inc., Redmond, Wash., USA). Mice were then boosted 21 days later with a similar injection of 100 μg bovine type II collagen emulsified in incomplete Freund's adjuvant. After four days, onset of arthritis was synchronized in all mice with an intraperitoneal injection of 25 μg lipopolysaccharide (LPS) dissolved in saline. Three days later mice were distributed equally across control and treatment groups (n=5). Healthy mice and disease control mice received daily intraperitoneal injections of 100 μL saline. […] Arthritis scores were assessed every other day by researchers blinded to the various treatment groups, using the following scoring system: 0=normal; 1=mild, but definite redness and swelling of the ankle or wrist, or apparent redness and swelling limited to individual digits, regardless of the number of affected digits; 2=moderate redness and swelling of ankle or wrist; 3=severe redness and swelling of the entire paw including digits; 4=maximally inflamed limb with involvement of multiple joints. A total score for each mouse was calculated by summing the scores for each of the four paws, allowing a maximum possible score of 16 per animal. Paw thickness was measured with calipers every other day starting on the first day of treatment. On day 3 of treatment, mice were anesthetized with isoflurane and imaged with ^99mTc-EC20 as described below. Mice were again imaged and then euthanized by CO2 asphyxiation on day 11 of treatment.
as §1
Mice were induced to develop collagen-induced arthritis (CIA, a well-established model of rheumatoid arthritis) and subjected 28 days later to treatment with methotrexate, dexamethasone or saline (disease control). Three days after initiation of therapy, the mice were injected with 150 μCi of ^99mTc-EC20 and subjected to their first planned radioimage analysis.

CIA mice [4] = conditions: prior finding; cited from earlier work
ApoE−/− mice [5] = conditions: prior finding; cited from earlier work
ApoE−/− mice [6] = test: Atherosclerosis in ApoE−/− mice on high fat diet: ^99mTc-EC20 radioimaging and aortic histology under therapy; assay type: in vivo
Method: Five week old male ApoE−/− mice were purchased from Jackson Laboratories and placed on an adjusted calorie diet (42% from fat, Harlan Laboratories). Healthy control mice (C57BL/6) were similarly maintained on normal chow. Mice were divided into therapy groups (n=5). Healthy mice and disease control mice received 100 μL saline daily by oral gavage. Diseased mice were treated daily with valsartan (1 mg/kg), or fluvastatin (3 mg/kg) by oral gavage. After three weeks of treatment, mice were imaged with 300 μCi ^99mTc-EC20. Mice were again imaged with ^99mTc-EC20 after 12 weeks of therapy and then euthanized by CO2 asphyxiation. Aortas were dissected and H&E and oil red O staining was performed.
as §2
The ability to predict response to therapy might be most useful when applied to treatment of inflammatory/autoimmune diseases that are either intrinsically difficult to monitor or slow to respond to therapeutic intervention. Because atherosclerosis suffers from both disadvantages due to its inaccessible location and slow rate of progression, ^99mTc-EC20 was analyzed to determine if it might be effective in predicting response to therapy in a common murine model of heart disease. […] After 3 weeks of daily treatment, when no morphological symptoms of heart disease could be detected, mice were anesthetized and imaged with ^99mTc-EC20.

CN/C(=N/CCSCc1nc[nH]c1C)NC#N [cimetidine]
clinical scores compared to disease control mice [1]: significantly lower | colon shortening compared to disease control mice [1]: reduced colon shortening | clinical scores or colon lengths relative to saline-treated mice [1]: no significant difference | ^99mTc-EC20 uptake in colon relative to saline-treated mice [1]: significantly less | ^99mTc-EC20 radioimages compared with the earlier time point (day 4) [1]: essentially unchanged | macrophage accumulation in large intestine compared to the disease control group (macrophage accumulation): reduced macrophage accumulation

etanercept
fibrosis by H&E analysis of the lungs ([2]; day 15 of treatment): reduced fibrosis | hydroxyproline contents in resected lung tissues compared to saline-treated controls ([2]; day 15 of treatment): reduced hydroxyproline contents | total cell counts in bronchoalveolar lavage fluids compared to saline-treated controls ([2]; day 15 of treatment): decreased total cell counts | accumulation of ^99mTc-EC20 compared to saline-treated disease controls ([2]; six days of treatment): decreased accumulation | disease symptoms (arthritis score, paw swelling) relative to disease control (CIA mice [3]; CIA mice): no significant difference | uptake of ^99mTc-EC20 in the affected appendages relative to disease control (CIA mice [3]; CIA mice): significantly less uptake | disease symptoms / joint inflammation (arthritis score, paw thickness) relative to disease control (CIA mice [3]; CIA mice, day 11 of therapy): significantly reduced inflammation

O=C(O)c1cc(/N=N/c2ccc(S(=O)(=O)Nc3ccccn3)cc2)ccc1O [sulphasalazine]
clinical scores compared to disease control mice [1]: significantly lower | colon shortening compared to disease control mice [1]: reduced colon shortening | clinical scores or colon lengths relative to saline-treated mice [1]: no significant difference | ^99mTc-EC20 uptake in colon relative to saline-treated mice [1]: significantly less | ^99mTc-EC20 radioimages compared with the earlier time point (day 4) [1]: essentially unchanged | macrophage accumulation in large intestine compared to the disease control group (macrophage accumulation): reduced macrophage accumulation

COc1ccc2cc([C@H](C)C(=O)O)ccc2c1 [naproxen]
efficacy in the CIA model of arthritis in mice (previously found) (CIA mice [4]): little efficacy

CCCCC(=O)N(Cc1ccc(-c2ccccc2-c2nnn[nH]2)cc1)[C@H](C(=O)O)C(C)C [valsartan]
plaque formation in murine models of atherosclerosis (have been shown) (ApoE−/− mice [5]): reduce plaque formation | ^99mTc-EC20 uptake in chest cavities relative to saline-treated mice (ApoE−/− mice [6]; after 3 weeks of daily treatment): significantly less | aortic wall thickening relative to saline-treated mice (ApoE−/− mice [6]; after 12 weeks of daily therapy, H&E): significantly reduced

Nc1nc2ncc(CNc3ccc(C(=O)N[C@H](CCC(=O)NC[C@@H]4[NH][99Tc]56(=[O])[S]C[C@@H](C(=O)O)[N]5C(=O)[C@H](CC(=O)O)[N]6C4=O)C(=O)O)cc3)nc2c(=O)[nH]1 [^99mTc-EC20]
accumulation of ^99mTc-EC20 in inflamed appendages (CIA mice [3]; CIA mice not treated with any anti-inflammatory drug, 150 μCi i.p.): exhibited the accumulation of ^99mTc-EC20 in their inflamed appendages

CN(Cc1cnc2nc(N)nc(N)c2n1)c1ccc(C(=O)N[C@@H](CCC(=O)O)C(=O)O)cc1 [methotrexate]
disease symptoms (arthritis score, paw swelling) relative to disease control (CIA mice [3]; CIA mice): no reduction | uptake of ^99mTc-EC20 in the affected appendages relative to disease control (CIA mice [3]; CIA mice): markedly less | disease symptoms / joint inflammation (arthritis score, paw thickness) relative to disease control (CIA mice [3]; CIA mice, day 11 of therapy): substantially resolved | uptake of ^99mTc-EC20 (radioimages) (CIA mice [3]; CIA mice, day 11 of therapy): significantly reduced uptake

Reference: patent US11162937B2, “Patient selection method for inflammation” (Purdue Research Foundation, priority 2013, dated 2021)
